The text below walks through data of patent US20090321255A1, “Drug-meter: Multiwell membrane-based potentiometric sensor for high throughput tests of drugs” (priority 2008, published 2009).

The nature of data set [1]: Biomimetic membrane lysis (screen for nonspecific liver toxicity). The following applies: elevated drug concentration (chlorpromazine near 0.05 M, after some time).
Another data set concerns the target albumin (Homo sapiens, UniProt P02768). Description: Transmembrane potential calibration of the multiwell sensor in albumin solution. It is filed as physicochemical. The method, then: In some cases drugs concentration was measured in albumin solutions with protein concentration 0.022 g/cm^3 in buffer or Fetal Bovine Serum was used with concentration of serum albumin in the range 0.0187 g/cm^3-0.022 g/cm^3.
The base plate was filled with the buffer of reference concentration 5×10^−6 M of drug, and the wells with albumin-drug solution, with constant concentration of albumin, but varying concentration of drug.
In this case the measuring Ag/AgCl electrode was inserted into the wells with albumin solution with decreasing fenfluramine concentrations, then increasing fenfluramine concentrations, i.e. forward and backward using the same wells. The base solution was buffer. The method allows measurements of fenfluramine from 5×10^−5 to 5×10^−2M.
If different concentrations of rimantadine in albumin solution were preliminary prepared, preequilibrated and then added into the wells (method 2), a gradient was 59.9 mV per 10 fold change in drug concentration, which is similar to that with a buffer solution.
Chlorpromazine test solutions were injected into the wells and the reference solution of 5×10^−6 M Chlorpromazine in the buffer was added into the base. […] This effect is similar to the lysis of biological membranes and is related to the surface active properties of chlorpromazine. It was observed also with several other psychotropic substances, including several antidepressants. Those of the drugs which induce lysis at elevated concentrations also have nonspecific liver toxicity.

A short description of data set [2]: Kinetics of transmembrane potential decrease due to drug transport through the membrane. It is filed as physicochemical. The method, then:
Kinetics of the process was registered with electrochemical station GPES. 5 mM Potassium Dihydrogen Phosphate solution in water was used as a buffer, filling the tray with the volume ˜30 ml. Known concentration of a drug (usually near 10^−5 M) could be added in the buffer as the reference. Membrane resistance after impregnation was several megaohms and usually decreases after modification of the membrane with drugs. Resistance is much lower when the membrane is broken. In this case the measurements can be conducted in other wells with the same test solution.
Using electrochemical station and computer it is possible to measure potential continuously in time, and for example, to study drug transport through the membrane. In this case it is possible to have different drugs or different types of membranes in different wells.
The steady state potential can decrease in time if one waits at least several minutes due to the slow drug transport through the membrane. After the experiments the membrane could be washed, dried, reimpregnated and after preequilibration used again.
At higher concentrations of the drug after the transmembrane potential reaches its maximum value, it slowly decreases with time due to the transport of the drug (FIG. 6). At pH 8 characteristic time was of the order ˜20 s and increased at more acidic pH to ˜100 s.

Data set [3] can be described thus: Transmembrane potential calibration of multiwell biomimetic membrane sensor in buffer. The class given is physicochemical. The following applies: pH 8. The text has this:
Multiwell plates used were commercial Millipore MultiScreen VM 0.05μ plates with nitrocellulose ultrafilters located at the base of each of the 96 wells of a plate. Though the number of the wells in the examples given in the disclosure is 96, as it is in the usual multiwell plates, it is not limited by this number and can be any from 2 and above.
All filters were impregnated by isopropyl myristate or some other lipid-like substances, like long chain fatty acids, their methyl and ethyl-esters, fats, etc. After impregnation the membranes should be translucent.
Each well requires as little as 200 μl of test solution. The small well's volume and the numerous wells (96) make the plates highly suitable as a part of the drug sensor, both for pharmaceutical testing in a buffer as well as for testing in biological fluids.
The tray cover can be is used as a base tray to put the reference buffer solution. Two Ag/AgCl electrodes with the salt bridges were used to measure transmembrane potential with common multimeter. It is possible to use one Ag/AgCl element as a measuring electrode and move it from one well to another. Another option is to have different measuring electrodes in different wells and separately to collect signals from each of them separately.
Kinetics of the process was registered with electrochemical station GPES. […]

Where [4] appears, read: bovine, fetal bovine serum, plasma or biological fluid.
[5] abbreviates: pH 7.4 buffer, pH 7.4, aqueous buffer.
Setting [6] is: method 1: drug added directly into albumin solutions in the wells.

Structures can show the parent of a compound that is named as a salt.

Chain of albumin (P02768 25-609, species assumed): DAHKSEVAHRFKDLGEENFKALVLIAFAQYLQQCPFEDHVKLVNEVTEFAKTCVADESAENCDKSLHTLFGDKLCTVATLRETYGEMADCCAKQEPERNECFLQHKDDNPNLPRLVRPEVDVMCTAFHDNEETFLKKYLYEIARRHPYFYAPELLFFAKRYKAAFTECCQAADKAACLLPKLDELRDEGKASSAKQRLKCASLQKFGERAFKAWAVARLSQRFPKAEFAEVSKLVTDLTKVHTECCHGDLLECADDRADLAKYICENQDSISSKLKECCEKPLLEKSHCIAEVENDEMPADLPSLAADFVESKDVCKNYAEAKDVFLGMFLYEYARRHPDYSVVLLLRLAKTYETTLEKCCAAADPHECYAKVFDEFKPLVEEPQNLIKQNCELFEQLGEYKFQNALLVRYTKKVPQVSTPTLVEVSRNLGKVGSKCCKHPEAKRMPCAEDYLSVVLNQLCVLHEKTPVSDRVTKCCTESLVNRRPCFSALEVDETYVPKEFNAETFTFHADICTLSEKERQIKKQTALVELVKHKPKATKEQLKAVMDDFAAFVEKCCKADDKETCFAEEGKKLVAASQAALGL

Turning to `CC(N)C12CC3CC(CC(C3)C1)C2.Cl` (stereo not drawn) [Rimantadine Hydrochloride, 1-(1-Adamantyl)ethylamine hydrochloride], the “membrane lysis / loss of transmembrane potential” value in data set [1] is on record as “did not result in the membrane lysis”. Moreover, the solubility in the data set “Solubility” (setting [4]) is about 10 mM; in “Solubility” (setting [5]), about 50 mM. For the same molecule, on albumin (setting [6]), the “slope of calibration curve” value is 19.3 mV per 10 fold change in Rimantadine concentration. Also, the “time for the potential to reach the steady state” value at albumin (setting [6]) was “at least an hr”. The “gradient of calibration curve” value at albumin (method 2: drug in albumin solution prepared, preequilibrated, then added into wells) was 59.9 mV per 10 fold change in drug concentration.

For `CN(C)CCCN1c2ccccc2Sc2ccc(Cl)cc21` [Chlorpromazine Hydrochloride, 2-chloro-10-[3-dimethylaminopropyl] phenothiazine], on albumin (pH2, reference 5×10^−6 M drug in buffer), the “potentials in buffer versus albumin solutions (drug binding property of albumin)” value is reported as “higher with buffer than with albumin solutions”.

As to `CCNC(C)Cc1cccc(C(F)(F)F)c1.Cl` (racemic) [Fenfluramine Hydrochloride, (+/−)-N-ethyl-α-methyl-m-(trifluoromethyl) phenethylamine HCl], the “characteristic time of potential decrease due to transport of the drug” value is about 100 s in data set [2] (more acidic pH) and about 20 s in data set [2] (pH 8, higher drug concentrations (FIG. 6: 10^−3 M)). Besides, the solubility was about 10 mM in “Solubility” (setting [4]) and about 50 mM in “Solubility” (setting [5]). Also, the “time taken to reach the maximum potential” value in data set [3] is “less then a minute”.

Usually solubility stands for the dissolved amount per volume that the medium holds.
